# Source: PMC6668435, “The structural basis of N-acyl-α-amino-β-lactone formation catalyzed by a nonribosomal peptide synthetase” (Nature Communications, 2019)
# Tests used:
# ObiH = biological target: T1, ObiH (Burkholderia diffusa, UniProt Z9H1N4SZ53); assay: LCMS detection of the β-hydroxy-α-amino acid product in coupled assay; assay type: biochemical
# T1 sequence (Z9H1N4SZ53 1-440): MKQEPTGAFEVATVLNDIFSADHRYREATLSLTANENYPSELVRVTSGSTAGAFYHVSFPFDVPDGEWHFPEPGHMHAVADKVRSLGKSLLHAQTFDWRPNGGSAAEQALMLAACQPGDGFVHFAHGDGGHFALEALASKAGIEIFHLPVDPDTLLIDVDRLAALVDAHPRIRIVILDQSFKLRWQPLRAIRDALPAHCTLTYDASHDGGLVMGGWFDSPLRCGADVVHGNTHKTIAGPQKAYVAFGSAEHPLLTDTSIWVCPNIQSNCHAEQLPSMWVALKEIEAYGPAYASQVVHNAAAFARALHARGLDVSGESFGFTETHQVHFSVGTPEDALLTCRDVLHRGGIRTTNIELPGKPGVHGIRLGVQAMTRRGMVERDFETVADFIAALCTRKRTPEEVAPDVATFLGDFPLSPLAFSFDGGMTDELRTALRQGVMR
# ObiF1 [1] = biological target: T2, ObiF1 (Burkholderia diffusa, UniProt A0A5H1ZR44); assay: coupled ObiF1/F2/D/H reconstitution, LCMS product ion counts; assay type: biochemical; conditions: made in situ by ObiH from phenylacetaldehyde and L-Thr; 1 µM holo-ObiF1, 5 mM ATP, 2,3-DHB, GSH or DTT trap, pH 7.5, room temperature
# T2 construct: full-length NRPS module C-A-PCP-TE-MLP (last residue Val1390), N-terminal His6, E. coli BL21(DE3), holo form (phosphopantetheinylated with Sfp and CoA); codon-optimised synthetic gene
# ObiF2 = biological target: T3, ObiF2 (Burkholderia diffusa, UniProt Z9YLO8D081); assay: coupled ObiF1/F2/D/H reconstitution, LCMS of acyl adenylate and product ions; assay type: biochemical
# T3 sequence (Z9YLO8D081 1-545): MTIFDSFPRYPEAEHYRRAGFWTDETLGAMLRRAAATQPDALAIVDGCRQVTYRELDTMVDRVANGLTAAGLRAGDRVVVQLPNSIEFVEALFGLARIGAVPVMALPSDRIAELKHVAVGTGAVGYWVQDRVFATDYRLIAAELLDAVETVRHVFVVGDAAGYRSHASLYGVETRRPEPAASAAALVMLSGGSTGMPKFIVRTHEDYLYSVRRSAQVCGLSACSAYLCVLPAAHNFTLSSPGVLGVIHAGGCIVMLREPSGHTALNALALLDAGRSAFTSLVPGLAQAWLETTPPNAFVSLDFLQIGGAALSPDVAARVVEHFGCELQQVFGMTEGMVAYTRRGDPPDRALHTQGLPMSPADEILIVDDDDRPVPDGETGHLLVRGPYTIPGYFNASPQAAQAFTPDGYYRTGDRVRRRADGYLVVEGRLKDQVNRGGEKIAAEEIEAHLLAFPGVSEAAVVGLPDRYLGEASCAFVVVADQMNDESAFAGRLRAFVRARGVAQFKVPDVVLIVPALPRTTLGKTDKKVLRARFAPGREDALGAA
# ObiF1 [2] = biological target: T2, ObiF1; assay: X-ray crystal structure, […] Å; assay type: binding; conditions: holo-ObiF1 co-crystallised with 2 mM ligand; bound in A domain active site (adenylate-forming conformation)
# [3] = biological target: ObiF1-del1304 (ObiF1 C-A-PCP-TE, terminated after Leu1303, without the MLP domain) (Burkholderia diffusa)
compound,measurement,setting,value
"O=CCc1ccccc1 [1a, phenylacetaldehyde]",LCMS detection of the β-hydroxy-α-amino acid product in coupled assay,ObiH,"Starting from phenylacetaldehyde (PAA), the L-Thr transaldolase ObiH generates"
"N[C@H](C(=O)O)[C@H](O)Cc1ccccc1 [2a, β-OH-homoPhe]","coupled ObiF1/F2/D/H reconstitution, LCMS product ion counts",ObiF1 [1],"The best substrates for ObiF1 were β-hydroxy-α-amino acids (2a, 2b) derived from phenylacetaldehydes"
"O=C(O)c1ccccc1O [3c, 2-OH benzoic acid]","coupled ObiF1/F2/D/H reconstitution, LCMS of acyl adenylate and product ions",ObiF2,2-OH and 3-OH benzoic acids (3c and 3d) were both activated and converted efficiently
"N[C@H](C(=O)O)[C@H](O)Cc1ccc([N+](=O)[O-])cc1 [β-OH-p-NO2-homoPhe, (2S,3R)-β-hydroxy-p-nitro-homophenylalanine]","X-ray crystal structure, 3.0 Å",ObiF1 [2],β-OH-p-NO2-homoPhe binds in the A domain active site
"ObiF1 MLP domain, residues 1304-1390, co-expressed in trans from the construct ObiF1 rbs1303/4 (domain or fragment)","product ion counts by LCMS in the ObiF1/F2/D/H reconstitution assay, protein sample rbs1303/4 (C-A-PCP-TE co-expressed with the MLP domain), no MLP added (fold lower than WT)",[3],4
